Patent US9056923B2, “Mimetic peptides derived from collagen type IV and their use for treating angiogenesis- and lymphagiogenesis-dependent diseases” (THE JOHNS HOPKINS UNIVERSITY, priority 2010, dated 2015)
Read-outs that look alike come from different tables or passages of the source. Square brackets hold non-standard residues; d marks the D form. Ends that are not written are not given here. Peptide text beside a SMILES is read from it. Abu = CC[C@H](N)C(=O)O

Experiments:
HUVEC [1] = assay: HUVEC tube formation assay on Matrigel; assay type: cell-based, human; conditions: for Activity in Tube formation: Yes/No summary
Method in brief: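 HUVEC (15,000/well) plated on polymerized Matrigel in complete media with or without peptide for 19 h at 37 °C. Tube networks imaged by microscopy, one random field per well, in triplicate wells across at least two independent experiments.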

HUVEC [2] = assay: HUVEC migration assay (RT-CIM); assay type: cell-based, human; conditions: for Activity in Migration: Yes/No summary, active = inhibitory potential greater than 30%
Method in brief: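 Real-time impedance (RT-CIM) transwell migration through fibronectin-coated (20 μg/mL) 8 μm membranes; 45,000 cells/well in serum-free medium ± peptides, fully supplemented EBM-2 as chemoattractant below. Cell index recorded over 20 h at 37 °C; ≥2 independent replicates, each in duplicate.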

[3] = system: microvascular endothelial cells (MEC); assay: MEC migration assay; assay type: cell-based
Method: (§1) The inhibitory potential of the peptides was measured using a real time migration assay system based on electrical impedance (RT-CIM, ACEA Biosciences, CA). CIM 16 well plates (Roche, 05665817001) are composed of a top and bottom chamber separated by a microporous (8 μm) polycarbonate membrane. The membrane was coated with fibronectin (20 μg/mL), and 45,000 cells/well in serum free media with or without peptides were added to the top compartment. Media with chemoattractant (i.e., fully supplemented EBM-2) was added to the bottom compartment of the chamber and the plate was incubated at 37° C. for 20 hours. The sensors integrated on the bottom side of the membrane monitor and continuously record changes in impedance as the cells move through the membrane. The RT-CIM technology allows for easy quantification of cell migration by monitoring the cell index derived from the measured impedances. Assays were performed in at least two independent replicates and each replicate was performed using two experimental duplicates.

[4] = system: MDA-MB-231 breast cancer cells; assay: MDA-MB-231 wound healing type migration assay (Oris Pro); assay type: cell-based
Method: Breast cancer cells MDA-MB-231 are not suitable for the RT-CIM type experiments due to their thin elongated phenotype, thus the inhibition of migration was investigated using a wound healing type assay. This assay was performed using the Oris Pro Migration assay (Platypus Technologies, CMA 1.101). Briefly, 20,000-25,000 cells/well in full media were added to the 96 well plate containing stoppers to block migration of cells to the center region of the wells. Cells were allowed to adhere for 4 hours, after which the stoppers were removed. Cells were washed one time with PBS and fully supplemented media, with or without compound, was added to the wells. […], cells were stained with calcein AM (0.5 μg/mL) (Invitrogen, CA) and the cells that migrated to the center of the well were quantified by fluorescence intensity measured using a Victor V plate reader (Perkin Elmer) and also imaged using a Leica or Nikon microscope.

[5] = system: microvascular endothelial cells (MEC); assay: MEC adhesion assay; assay type: cell-based
Method: (§2) Similar to the migration assays, the inhibition activity of the peptide in cellular adhesion was assessed using the RT-CIM technology. In this case, 25,000 cells/well were plated in 16 wells E-plates (Roche, Basel Switzerland) in the presence or absence of the peptide. The adhesion was monitored over time (3 hours) by measuring changes in the electrical impedance, which is a direct measure of the cells adhering on the electrodes. […] Assays were performed in at least two independent replicates and each replicate was performed using two experimental duplicates.

HUVEC [6] = assay type: cell-based, human; conditions: for Activity in Adhesion: Yes/No summary, active = inhibitory potential greater than 30%
Method in brief: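 Adhesion of 25,000 cells per well, with or without peptide, followed by real-time electrical impedance on electrode plates over 3 hours. At least two independent replicates, each run in duplicate.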

[7] = system: MDA-MB-231 breast cancer cells; assay: MDA-MB-231 adhesion assay; assay type: cell-based
Method: as §2

[8] = system: lymphatic endothelial cells (LEC); assay: LEC adhesion assay; assay type: cell-based
Method: as §2

MDA-MB-231 xenograft = assay: MDA-MB-231 orthotopic breast tumor xenograft; assay type: in vivo, SCID mice
Method: For primary tumor inhibition studies, 1−2×10^6 tumor cells were injected into 4-6 wk old female SCID mice. After the tumors reached a size of 100 mm^3 the animals were randomized into groups of 10 animals each. The animals were treated with vehicle, SP2012, SP2000, or SP2024. The peptides were administered subcutaneously daily. Dosing was continued for 3 or 4 weeks and tumor sizes were measured every 3 days using calipers. The tumor volume was estimated using the formula V=a^2b/2 where a and b are the smaller and larger diameters.
For the tumor xenograft assay, animals were housed and treated according to the approved animal protocol of the Institutional Care and Use Committee at Johns Hopkins Medical Institution (JHMI). Orthotopic breast tumors were initiated in SCID mice using MDA-MB-231 cells. 2×10^6 cells per 100 μL aliquot of single cell suspension were injected in the breast mannary fat pad. Tumors reached volumes of 75 mm^3 to 100 mm^3 in approximately 14-21 days. Mice were randomized and arranged in groups (8 mice per group) with similar tumor volumes (no statistical difference among averages) and treatment was commenced. Peptides were administered once per day intraperitoneally (i.p.) at doses of 10 mg/kg (subcutaneous delivery was also tested with certain peptides). Paclitaxel was administered at 5 mg/kg once a week, and to maintain the daily treatment regime PBS was administered on the non-treatment days. Tumors were measured every fourth day using calipers and the tumor volume was calculated using the formula V=ab^2/2, where a is the larger diameter and b is the smaller diameter.

HUVEC [9] = assay type: cell-based, human; conditions: for Activity in Proliferation: Yes/No summary
Method in brief: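 HUVEC plated at 2000 cells/well overnight, then exposed to peptides in fully supplemented medium for three days. WST-1 added in serum-free EBM-2 for four hours and absorbance read at 450 nm. Percent live cells taken relative to untreated cells in complete medium with 0.2% DMSO.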

[10] = system: lymphatic endothelial cells (LEC); assay: LEC migration assay; assay type: cell-based
Method: as §1

[11] = system: choroidal neovascularization; assay: Laser-induced choroidal neovascularization model; assay type: in vivo, C57BL/6 mice; conditions: 0.1 μg into a mouse eye
Method: The ocular laser-induced choroidal neovascularization (NV) model of wet age-related macular degeneration was used for testing. 5-6-week-old female pathogen-free C57BL/6 mice were anesthetized with ketamine hydrochloride (100 mg/kg body weight) and pupils were dilated. Laser photocoagulation (75-μm spot size, 0.1-sec duration, 120 mW) was performed in the 9, 12, and 3 o'clock positions of the posterior pole of each eye with the slit lamp delivery system of an OcuLight GL diode laser (Iridex, Mountain View, Calif.) and a handheld cover slip as a contact lens to view the retina. Production of a tissue bubble by the laser, which indicates rupture of Bruch's membrane, is an important factor in obtaining choroidal NV; therefore, only burns in which a bubble is produced are included in the study. […] At day 7 the mice that received the naked peptides were dosed again whereas the mice that received the particles were administered PBS. Intravitreous injections were done under a dissecting microscope with a Harvard Pump Microinjection System and pulled glass micropipettes. After 14 days, the mice were perfused with 1 mL of PBS containing 50 mg/mL of fluorescein-labeled dextran (2×10^6 Daltons average molecular weight; Sigma-Aldrich, St. Louis, Mo.) and choroidal flat mounts were examined by fluorescence microscopy. Images were captured with a Nikon Digital Still Camera DXM1200 (Nikon Instruments Inc., New York, N.Y.). Image analysis software (Image-Pro Plus; Media Cybernetics, Silver Spring, Md.) was used to measure the total area of choroidal NV at each rupture site with the investigator masked with respect to treatment group.

[12] = system: VEGF mediated retinal neovascularization; assay: Rho/VEGF transgenic mice model of retinal neovascularization; assay type: in vivo
Method: The ocular Rho/VEGF transgenic mice model of wet age-related macular degeneration also was used to test some of the peptides. Transgenic mice in which the rhodopsin promoter drives expression of VEGF in photoreceptors have the onset of VEGF production at P7 and develop extensive NV along the outer surface of the retina by P21 (Okamoto et al., 1997; To be et al., 1998). Mice hemizygous for the transgene (n=15 for each dose) were given an intraocular injection of 1 μl of PBS containing 0.01, 0.1, or 1 μg of peptide or scramble peptide in one eye at P7 and P14 and at P21 the mice were anesthetized, perfused with fluorescein-labeled dextran, and the total area of neovascularization on the outer surface of the retina was measured on retinal flat mounts by image analysis as above.

## CC[C@H](NC(=O)[C@H](Cc1ccccc1)NC(=O)[C@H](CCSC)NC(=O)[C@H](Cc1ccccc1)NC(=O)[C@@H]1CCCN1C(=O)[C@H](CCSC)NC(=O)[C@@H](NC(=O)[C@H](CO)NC(=O)[C@H](Cc1ccccc1)NC(=O)[C@H](CCCNC(=N)N)NC(=O)[C@H](CCCNC(=N)N)NC(=O)[C@@H](N)CC(C)C)[C@@H](C)O)C(=O)N[C@@H](CC(N)=O)C(=O)N[C@H](C(=O)N[C@@H](CC(N)=O)C(=O)N[C@@H](CC(N)=O)C(=O)N[C@H](C(=O)N[C@@H](CC)C(=O)N[C@@H](CC(N)=O)C(=O)N[C@@H](Cc1ccccc1)C(N)=O)C(C)C)[C@@H](C)CC [SP2012, LRRFSTMPFMFAbuNINNVAbuNF] (H-LRRFSTMPFMF[Abu]NINNV[Abu]NF-NH2; N-terminus assumed)
HUVEC [1]; (l0 uM) printed in the cell
  Tube formation Inhibition: Complete
HUVEC [1]
  Activity in Tube formation: Yes
HUVEC [2]; 5 uM peptide
  Migration Inhibition (5 uM): 0% (5 uM)
HUVEC [2]; 50 uM peptide
  Migration Inhibition (50 uM): 68%
HUVEC [2]
  Activity in Migration: Yes
[3]
  inhibition of migration of MEC: quite active
[4]
  inhibition of migration of MDA-MB-231 cells: strong
[4]; 50 μM and 5 μM treatments, 17 hours of incubation
  Migration of MDA-MB-231 cells into the restricted area: statistically significant versus the control
[5]
  inhibition of adhesion of MEC: quite active
HUVEC [6]; HUVEC, 100 uM peptide
  Adhesion Inhibition (100 uM): 93.14%
HUVEC [6]; HUVEC
  Activity in Adhesion: Yes
[7]
  inhibition of adhesion of MDA-MB-231 cells: strong
[8]
  inhibition of adhesion of LEC: strong
MDA-MB-231 xenograft; MDA-MB-231 xenograft in mice, 10 mg/kg daily
  suppression of tumor growth: tumor growth was inhibited
MDA-MB-231 xenograft; after completion of the treatment at 21 days
  microvascular density: statistically different from one another
MDA-MB-231 xenograft; mice
  MDA-MB-231 xenograft inhibition: Active
HUVEC [9]
  IC50: 22 µM
HUVEC [9]; HUVEC
  Activity in Proliferation: Yes
HUVEC [9]; HUVEC, tables 5, 8-10 and text, read-out: IC50 ± 95% CI (μM), proliferation
  IC50: 48.1 ± 23.1 µM
[10]
  inhibition of migration of LEC: strong

## LRRFSTAPFAFININNVINF-NH2 [SP2036]
HUVEC [1]
  Activity in Tube formation: Yes
HUVEC [2]
  Activity in Migration: Yes
[11]
  laser-induced choroidal neovascularization: inhibited laser-induced choroidal neovascularization
HUVEC [6]; 3 h
  IC50: 2.75 ± 1.22 µM
HUVEC [6]; HUVEC
  Activity in Adhesion: Yes
[12]; 0.1 μg administered directly into the eye
  inhibition of VEGF mediated angiogenesis: about 70%
[12]; 0.1 μg into a mouse eye
  area of retinal neovascularization in the Rho/VEGF model: inhibited
HUVEC [9]
  IC50: 9.97 ± 8.3 µM
HUVEC [9]; HUVEC
  loss of activity in proliferation compared to substitution of Methionine at position 10: 10 fold
  Activity in Proliferation: Yes
